What was measured:
[1] = system: WT Eco riboswitch 36-mer, biotinylated (RNA, riboswitch) AUUGGGUUCCCUCACCCCAAUGGUUAAUCAAAAAGG; assay: SPR kinetics (1:1 fit); details: Na+ 100 mM, Mg2+ 3 mM; 10 mM Na-HEPES pH 7.5, 25 °C; apparent
[2] = system: Eco 30-mer (crystal construct) (RNA, riboswitch) UUGGGUUCCCUCACCCCAAUCAUAAAAAGG; assay: X-ray crystallography (2.30 Å, Mn2+ SAD); details: Mn2+ 5 mM, K+ 100 mM, Mg2+ 2 mM (well solution); Na-cacodylate pH 6.0, spermine, MPD, 20 °C
[3] = system: Eco 35-mer (linker ΔG) (RNA, riboswitch) AUUGGGUUCCCUCACCCCAAUGUUAAUCAAAAAGG; assay: ITC; details: 10 μM RNA in cell, 100 μM preQ1 in syringe; buffer as in cited work
[4] = system: G6DAP/C16U (RNA, riboswitch, 2,6-diaminopurine at 6) AUUGGGUUCCCUCACUCCAAUGGUUAAUCAAAAAGG; assay: SPR steady state (one-site fit); details: Na+ 100 mM, Mg2+ 3 mM; 10 mM Na-HEPES pH 7.5, 25 °C; preQ1 1.25 to 200 μM
[5] = system: Eco 34-mer (linker ΔGG) (RNA, riboswitch) AUUGGGUUCCCUCACCCCAAUUUAAUCAAAAAGG; assay: ITC; details: 10 μM RNA in cell, 100 μM preQ1 in syringe; buffer as in cited work
[6] = system: Eco 30-mer (crystal construct) (RNA, riboswitch) UUGGGUUCCCUCACCCCAAUCAUAAAAAGG; assay: ITC; details: 10 μM RNA in cell, 100 μM preQ1 in syringe; buffer as in cited work
[7] = system: C15U (RNA, riboswitch) AUUGGGUUCCCUCAUCCCAAUGGUUAAUCAAAAAGG; assay: SPR steady state (one-site fit); details: Na+ 100 mM, Mg2+ 3 mM; 10 mM Na-HEPES pH 7.5, 25 °C; preQ1 9.7 to 10,000 μM
[8] = system: Eco 33-mer (linker ΔGGU) (RNA, riboswitch) AUUGGGUUCCCUCACCCCAAUUAAUCAAAAAGG; assay: ITC; details: 10 μM RNA in cell, 100 μM preQ1 in syringe; buffer as in cited work
[9] = system: WT Eco riboswitch 36-mer (RNA, riboswitch) AUUGGGUUCCCUCACCCCAAUGGUUAAUCAAAAAGG; assay: ITC; details: 10 μM RNA in cell, 100 μM preQ1 in syringe; buffer as in cited work
[10] = system: U7C (RNA, riboswitch) AUUGGGCUCCCUCACCCCAAUGGUUAAUCAAAAAGG; assay: SPR steady state (one-site fit); details: Na+ 100 mM, Mg2+ 3 mM; 10 mM Na-HEPES pH 7.5, 25 °C; preQ1 9.7 to 10,000 μM; text gives 4.2 ± 0.3 mM

N#Cc1c[nH]c2nc(N)[nH]c(=O)c12
KD [1]: 15,970 ± 2260 nM

NCc1c[nH]c2nc(N)[nH]c(=O)c12
binding [2]: yes | KD [3]: 33.4 ± 1.9 nM | KD [4]: 77,390 ± 5880 nM | KD [5]: 14.0 ± 1.6 nM | KD [6]: 51.9 ± 1.8 nM | KD [7]: 7,682,000 ± 206,000 nM | KD [8]: 30.2 ± 1.3 nM | KD [9]: 57.9 ± 1.5 nM | KD [10]: 4,220,000 ± 33,000 nM | KD [1]: 120 ± 6 nM

— PMC10622847 (2023)
